Results taken from patent US9833423B2 (KOREA RESEARCH INSTITUTE OF CHEMICAL TECHNOLOGY, priority 2011, dated 2017).
In brackets after ≈: the same amount, converted by molar mass. Where two headings read alike, the source gives them in different places.

Legend:
[1] = system: Polio-virus 3; assay: microbe, parasite or virus in culture; format: cell-based, Poliovirus 3; conditions: Enterovirus C, HeLa37, 48 h, read-out: Polio-virus 3 EC50
[2] = system: Coxsackie-virus B1; assay: Cytopathic effect (CPE) inhibition assay; format: cell-based, Coxsackievirus B1; conditions: Enterovirus B, HeLa37, 48 h, HeLa, 37° C., 2 days
[3] = system: Coxsackie-virus B3; assay: Cytopathic effect (CPE) inhibition assay; format: cell-based, Coxsackievirus B3; conditions: Enterovirus B, HeLa37, 48 h, HeLa, 37° C., 2 days
[4] = in vitro; conditions: human
[5] = Table 4, read-out: Coxsackie-virus B1 EC50
[6] = Table 4, read-out: Coxsackie-virus B3 EC50
[7] = Table 3, read-out: EC50 Coxsackie-virus B1

Structure (SMILES) | EC50 [2, 5] [µg/mL] | EC50 [3, 6] [µg/mL] | CC50 ([4]; Picorna-virus CC50) [µg/mL] | melting point [°C] | CC50 ([4]; CC50) [µg/mL] | further results
CCCC(=O)NC1(c2ccc(C(C)C)cc2OC(=O)CCC)C(=O)c2cccc(N)c2C1=O (centres unmarked) [Example 85, 2-(4-Amino-2-butyramido-1,3-dioxo-2,3-dihydro-1H-inden-2-yl)-5-isopropylphenyl butyrate] | < 0.01 | < 0.03 | 45.9 (≈ 102 µM) |  |  | EC50 [1]: 0.015 µg/mL (≈ 0.0333 µM)
CCCCCCC(=O)NC1(c2ccc(C(C)C)cc2OC(=O)CCCCCC)C(=O)c2cccc(N)c2C1=O (centres unmarked) [Example 83, 2-(4-Amino-2-heptanamido-1,3-dioxo-2,3-dihydro-1H-inden-2-yl)-5-isopropylphenyl heptanoate] | < 0.01 | < 0.01 | > 100 |  |  | 
COC(=O)Oc1cc(C(C)C)ccc1C1(NC(C)=O)C(=O)c2ccccc2C1=O [Example 92, 2-(2-Acetamido-1,3-dioxo-2,3-dihydro-1H-inden-2-yl)-5-isopropylphenyl methyl carbonate] | < 0.01 | < 0.01 | 43.6 (≈ 110 µM) |  |  | 
CC(C)C(=O)Nc1cc(C(C)C)ccc1C1(O)C(=O)c2ccccc2C1=O [Example 95, N-(2-(2-Hydroxy-1,3-dioxo-2,3-dihydro-1H-inden-2-yl)-5-isopropylphenyl)isobutyramide] | < 0.01 | < 0.01 | 27.4 (≈ 75.1 µM) |  |  | 
CCCCCC(=O)NC1(c2ccc(C(C)C)cc2OC(=O)CCCCC)C(=O)c2ccccc2C1=O [Example 78, Hexanoic acid 2-(2-hexanoylamino-1,3-dioxo-indan-2-yl)-5-isopropyl-phenyl ester] | < 0.01 | < 0.01 | 68.2 (≈ 139 µM) |  |  | 
CCCCC(=O)NC1(c2ccc(C(C)C)cc2OC(=O)C(C)(C)C)C(=O)c2ccccc2C1=O [Example 80, 2,2-Dimethyl-propionic acid 2-(1,3-dioxo-2-pentanoylamino-indan-2-yl)-5-isopropyl-phenyl ester] | < 0.01 | < 0.01 | > 100 |  |  | 
CC(C)c1ccc(C2(OC(=O)c3ccccc3)C(=O)c3ccccc3C2=O)c(O)c1 [Example 23, 2-(2-Hydroxy-4-isopropylphenyl)-1,3-dioxo-2,3-dihydro-1H-inden-2-yl benzoate] |  |  |  | 117 to 119 | 44.3 (≈ 111 µM) | EC50 [2, 7]: < 0.01 µg/mL
CCC(=O)Nc1cc(C)c(C)cc1C1(O)C(=O)c2ccccc2C1=O [Example 87, N-(2-(2-Hydroxy-1,3-dioxo-2,3-dihydro-1H-inden-2-yl)-4,5-dimethylphenyl)propionamide] | 0.019 (≈ 0.0563 µM) |  | 8.31 (≈ 24.6 µM) |  |  | 
CCCCCCC(=O)NC1(c2ccc(C(C)C)cc2OC(=O)CCCCCC)C(=O)c2ccccc2C1=O [Example 79, Heptanoic acid 2-(2-heptanoylamino-1,3-dioxo-indan-2-yl)-5-isopropyl-phenyl ester] | < 0.01 | < 0.01 | 8.94 (≈ 17.2 µM) |  |  | 
CCOC(=O)N(C(C)=O)C1(c2ccc(C(C)C)cc2O)C(=O)c2ccccc2C1=O [Example 102, Ethyl acetyl(2-(2-hydroxy-4-isopropylphenyl)-1,3-dioxo-2,3-dihydro-1H-inden-2-yl)carbamate] | < 0.01 | < 0.01 | 42.5 (≈ 104 µM) |  |  | 
CC(=O)Nc1ccc([N+](=O)[O-])c2c1C(=O)C(O)(c1cc(C)c(C)cc1NC(=O)C(C)C)C2=O (centres unmarked) [Example 94, N-(2-(4-Acetamido-2-hydroxy-7-nitro-1,3-dioxo-2,3-dihydro-1H-inden-2-yl)-4,5-dimethylphenyl)isobutyramide] | < 0.01 | < 0.01 | 39.2 (≈ 86.4 µM) |  |  | 
COc1cc(C(C)C)ccc1C1(NC(C)=O)C(=O)c2ccccc2C1=O [Example 54, N-(2-(4-Isopropyl-2-methoxyphenyl)-1,3-dioxo-2,3-dihydro-1H-inden-2-yl)acetamide] |  |  |  | 222 to 224 | > 117 | EC50 [2, 7]: 0.0198 µg/mL (≈ 0.0563 µM)
CCCCCCCC(=O)NC1(c2ccc(C(C)C)cc2OC(=O)CCCCCCC)C(=O)c2cccc(N)c2C1=O (centres unmarked) [Example 91, 2-(4-Amino-2-octanamido-1,3-dioxo-2,3-dihydro-1H-inden-2-yl)-5-isopropylphenyl octanoate] | 0.015 (≈ 0.0267 µM) |  | 40 (≈ 71.1 µM) |  |  | 
CC(=O)NC1(c2ccc(C(C)C)cc2OC(=O)Oc2ccccc2)C(=O)c2ccccc2C1=O [Example 99, Carbonic acid 2-(2-acetylamino-1,3-dioxo-indan-2-yl)-5-isopropyl-phenyl ester phenyl ester] | < 0.01 | < 0.01 | 38.1 (≈ 83.2 µM) |  |  | 
CCC(=O)Oc1cc(C(C)C)ccc1C1(OC(=O)CC)C(=O)c2ccccc2C1=O [Example 21, 2-(1,3-Dioxo-2-(propionyloxy)-2,3-dihydro-1H-inden-2-yl)-5-isopropylphenyl propionate] |  |  |  | 123 to 125 | 16 (≈ 39.2 µM) | EC50 [2, 7]: < 0.01 µg/mL
COC(=O)NC1(c2ccc(C(C)C)cc2OC(=O)OC)C(=O)c2ccccc2C1=O [Example 48, Methyl 2-(4-isopropyl-2(methoxycarbonyloxy)phenyl)-1,3-dioxo-2,3-dihydro-1H-inden-2-yl carbamate] |  |  |  |  | 46.7 (≈ 114 µM) | EC50 [2, 7]: < 0.01 µg/mL; EC50 ([3]; Table 3, read-out: EC50 Coxsackie-virus B3): < 0.01 µg/mL

Structure (SMILES) | EC50 [2, 5] [µg/mL] | EC50 [3, 6] [µg/mL] | CC50 ([4]; Picorna-virus CC50) [µg/mL] | melting point [°C] | CC50 ([4]; CC50) [µg/mL] | further results
C=CC(=O)Oc1cc(C(C)C)ccc1C1(OC(=O)C=C)C(=O)c2ccccc2C1=O [Example 32, 2-(2-(Acryloyloxy)-1,3-dioxo-2,3-dihydro-1H-inden-2-yl)-5-isopropylphenyl acrylate] |  |  |  |  | 28.7 (≈ 70.9 µM) | EC50 [2, 7]: < 0.01 µg/mL
CC(=O)Oc1cc(C(C)(C)C)ccc1C1(OC(C)=O)C(=O)c2ccccc2C1=O [Example 15, 2-(2-Acetoxy-1,3-dioxo-2,3-dihydro-1H-inden-2-yl)-5-tert-butylphenyl acetate] |  |  |  | 119 to 120 | 8.26 | EC50 [2, 7]: 0.015 µg/mL
CC(C)C(=O)NC1(c2ccc(C(C)C)cc2OC(=O)C(C)C)C(=O)c2ccccc2C1=O [Example 50, 2-(2-Isobutylamido-1,3-dioxo-2,3-dihydro-1H-inden-2-yl)-5-isopropylphenyl isobutyrate] |  |  |  |  | 44.3 (≈ 102 µM) | EC50 [2, 7]: 0.0112 µg/mL (≈ 0.0257 µM)
COc1cc(C(C)C)ccc1C1(O)C(=O)c2c(N)ccc(N)c2C1=O [Example 46, 4,7-Diamino-2-hydroxy-2-(4-isopropyl-2-methoxyphenyl)-2H-inden-1,3-dione] |  |  |  | 243 to 247 | 64 (≈ 188 µM) | 
COc1cc(C(C)C)ccc1C1(N)C(=O)c2cccc(NC(C)=O)c2C1=O (centres unmarked) [Example 66, N-(2-Amino-2-(4-isopropyl-2-methoxyphenyl)-1,3-dioxo-2,3-dihydro-1H-inden-4-yl)acetamide] |  |  |  | 183 to 185 | 26.7 (≈ 72.8 µM) | 
CCOC(=O)Oc1cc(C(C)C)ccc1C1(NC(C)=O)C(=O)c2ccccc2C1=O [Example 101, 2-(2-Acetamido-1,3-dioxo-2,3-dihydro-1H-inden-2-yl)-5-isopropylphenyl ethyl carbonate] | < 0.01 | < 0.01 | 46 (≈ 112 µM) |  |  | 
COc1cc(C(C)C)ccc1C1(Br)C(=O)c2cccc(NC(C)=O)c2C1=O (centres unmarked) [Example 65, N-(2-Bromo-2-(4-isopropyl-2-methoxyphenyl)-1,3-dioxo-2,3-dihydro-1H-inden-4-yl)acetamide] |  |  |  | 143 to 145 | 11.2 (≈ 25.9 µM) | 
CSc1ccccc1C1(O)C(=O)c2ccccc2C1=O [Example 57] |  |  |  | 191 to 193 | 48.2 (≈ 170 µM) | 
CCC(=O)NC1(c2ccc(C(C)C)cc2OC(=O)CC)C(=O)c2cccc(N)c2C1=O (centres unmarked) [Example 84, 2-(4-Amino-1,3-dioxo-2-propionamido-2,3-dihydro-1H-inden-2-yl)-5-isopropylphenyl propionate] | < 0.01 | < 0.01 | > 100 |  |  | 
COc1cc(C(C)C)ccc1C1(Cl)C(=O)c2cccc([N+](=O)[O-])c2C1=O (centres unmarked) [Example 39, 2-Chloro-2-(4-isopropyl-2-methoxyphenyl)-4-nitro-2H-inden-1,3-dione] |  |  |  | 81 to 84 | 6.67 (≈ 17.8 µM) | 
CC(C)c1ccc(C2(O)C(=O)c3ccccc3C2=O)c(OC(=O)/C=C/c2ccccc2)c1 [Example 30, 2-(2-Hydroxy-1,3-dioxo-2,3-dihydro-1H-inden-2-yl)-5-isopropylphenyl cinnamate] |  |  |  | 95 to 97 | > 100 | EC50 [2, 7]: < 0.01 µg/mL
CC(=O)Oc1ccc([N+](=O)[O-])cc1C1(OC(C)=O)C(=O)c2ccccc2C1=O [Example 9, 2-(2-Acetoxy-1,3-dioxo-2,3-dihydro-1H-inden-2-yl)-4-nitrophenyl acetate] |  |  |  | 163 to 167 | > 100 | 
CCNC(=O)NC1(c2ccc(C(C)C)cc2OC)C(=O)c2ccccc2C1=O [Example 60, 1-Ethyl-3-(2,3-dihydro-2-(4-isopropyl-2-methoxyphenyl)-1,3-dioxo-1H-inden-2-yl)urea] |  |  |  | 267 to 269 | 68.9 (≈ 181 µM) | 
CCCC(=O)Oc1cc(C(C)C)ccc1C1(OC(=O)CCC)C(=O)c2ccccc2C1=O [Example 22, 2-(2-(Butyryloxy)-1,3-dioxo-2,3-dihydro-1H-inden-2-yl)-5-isopropylphenyl butyrate] |  |  |  | 98 to 102 | 33.8 (≈ 77.4 µM) | EC50 [2, 7]: < 0.01 µg/mL
CCCC(=O)NC1(c2ccc(C(C)C)cc2OC(=O)CCC)C(=O)c2ccccc2C1=O [Example 76, Butyric acid 2-(2-butyrylamino-1,3-dioxo-indan-2-yl)-5-isopropyl-phenyl ester] | < 0.01 | < 0.04 | 45.1 (≈ 104 µM) |  |  | 
CCCCC(=O)Oc1cc(C(C)C)ccc1C1(NC(C)=O)C(=O)c2ccccc2C1=O [Example 93, 2-(2-Acetamido-1,3-dioxo-2,3-dihydro-1H-inden-2-yl)-5-isopropylphenyl pentanoate] | < 0.01 | < 0.01 | 35.2 (≈ 83.5 µM) |  |  | 
